Reference: PubChem BioAssay (NCI)
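Method: 48-hour compound exposure of cells in 96-well plates, five concentrations, linear interpolation of endpoints. Definition used: TGI = concentration required for complete inhibition of growth.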

Tests used:
Assay in all cases: NCI-60 cell line screen, 48 h
[1] = system: U251 CNS
[2] = system: M14 melanoma
[3] = system: HCT-15 colon
[4] = system: MOLT-4 leukemia
[5] = system: RXF 393 renal
[6] = system: XF 498 CNS
[7] = system: SN12C renal
[8] = system: M19-MEL melanoma
[9] = system: HOP-92 NSCLC
[10] = system: SW-620 colon
[11] = system: SR leukemia
[12] = system: MALME-3M melanoma
[13] = system: TK-10 renal
[14] = system: DLD-1 colon
[15] = system: HCC-2998 colon
[16] = system: SF-268 CNS
[17] = system: COLO 205 colon
[18] = system: HL-60(TB) leukemia
[19] = system: OVCAR-4 ovarian
[20] = system: SNB-19 CNS
[21] = system: DMS 273 small cell lung
[22] = system: UACC-62 melanoma
[23] = system: HT29 colon
[24] = system: NCI-H23 lung
[25] = system: 786-0 renal
[26] = system: OVCAR-8 ovarian
[27] = system: UO-31 renal
[28] = system: A498 renal
[29] = system: NCI-H460 lung
[30] = system: OVCAR-3 ovarian
[31] = system: SNB-75 CNS
[32] = system: IGROV1 ovarian
[33] = system: DMS 114 small cell lung
[34] = system: K-562 leukemia
[35] = system: HCT-116 colon
[36] = system: A549 NSCLC
[37] = system: UACC-257 melanoma
[38] = system: CAKI-1 renal
[39] = system: SF-295 CNS
[40] = system: CCRF-CEM leukemia
[41] = system: RPMI-8226 leukemia
[42] = system: SK-OV-3 ovarian
[43] = system: LXFL 529 NSCLC
[44] = system: OVCAR-5 ovarian
[45] = system: KM20L2 colon
[46] = system: SK-MEL-5 melanoma
[47] = system: LOX IMVI melanoma
[48] = system: NCI-H522 lung
[49] = system: KM12 colon
[50] = system: NCI-H226 lung
[51] = system: SF-539 CNS
[52] = system: SNB-78 CNS
[53] = system: HOP-62 NSCLC
[54] = system: EKVX NSCLC
[55] = system: SK-MEL-28 melanoma
[56] = system: ACHN renal
[57] = system: SK-MEL-2 melanoma
[58] = system: HOP-18 NSCLC

In the case of `COC(=O)c1c(C(=O)OC)c(-c2ccccc2)n(-c2ccccc2)c(=O)c1-c1ccccc1`, the TGI [1] is reported as > 100 µM, the TGI [2] is reported as > 100 µM and the TGI [3] is reported as > 100 µM. The TGI [4] was > 100 µM, the TGI [5] was 60.8 µM and the TGI [6] was 68.8 µM. The TGI [7] was > 100 µM, the TGI [8] was > 100 µM and the TGI [9] was 83 µM. For the same molecule, the TGI [10] was > 100 µM, the TGI [11] was > 100 µM and the TGI [12] was > 100 µM. For the same molecule, the TGI [13] was > 100 µM, the TGI [14] was > 100 µM and the TGI [15] was > 100 µM. For the same molecule, the TGI [16] was > 100 µM, the TGI [17] was > 100 µM and the TGI [18] was > 100 µM. The TGI [19] was 78.1 µM, the TGI [20] was > 100 µM and the TGI [21] was > 100 µM. For the same molecule, the TGI [22] was > 100 µM, the TGI [23] was > 100 µM and the TGI [24] was > 100 µM. For the same molecule, the TGI [25] was > 100 µM, the TGI [26] was > 100 µM and the TGI [27] was > 100 µM. For the same molecule, the TGI [28] was > 100 µM, the TGI [29] was > 100 µM and the TGI [30] was > 100 µM. The TGI [31] was 64 µM, the TGI [32] was > 100 µM and the TGI [33] was > 100 µM. The TGI [34] was > 100 µM, the TGI [35] was > 100 µM and the TGI [36] was > 100 µM. The TGI [37] was > 100 µM, the TGI [38] was > 100 µM and the TGI [39] was > 100 µM. For the same molecule, the TGI [40] was > 100 µM, the TGI [41] was > 100 µM and the TGI [42] was > 100 µM. For the same molecule, the TGI [43] was > 100 µM, the TGI [44] was > 100 µM and the TGI [45] was > 100 µM. For the same molecule, the TGI [46] was > 100 µM, the TGI [47] was > 100 µM and the TGI [48] was > 100 µM. For the same molecule, the TGI [49] was > 100 µM, the TGI [50] was > 100 µM and the TGI [51] was > 100 µM. For the same molecule, the TGI [52] was > 100 µM, the TGI [53] was > 100 µM and the TGI [54] was > 100 µM.

In the case of `Cc1ccc(C)c2c1C1CCCCC3(OCCCO3)C21O` (stereo not drawn), the TGI [1] is reported as > 100 µM, the TGI [2] is reported as > 100 µM and the TGI [3] is reported as > 100 µM. For the same molecule, the TGI [4] was > 100 µM, the TGI [5] was > 100 µM and the TGI [7] was > 100 µM. For the same molecule, the TGI [8] was > 100 µM, the TGI [10] was > 100 µM and the TGI [12] was > 100 µM. For the same molecule, the TGI [13] was > 100 µM, the TGI [14] was > 100 µM and the TGI [15] was > 100 µM. The TGI [55] was > 100 µM, the TGI [16] was > 100 µM and the TGI [17] was > 100 µM. For the same molecule, the TGI [56] was > 100 µM, the TGI [18] was > 100 µM and the TGI [19] was > 100 µM. For the same molecule, the TGI [20] was > 100 µM, the TGI [21] was > 100 µM and the TGI [22] was > 100 µM. The TGI [23] was > 100 µM, the TGI [57] was > 100 µM and the TGI [24] was > 100 µM. The TGI [25] was > 100 µM, the TGI [26] was > 100 µM and the TGI [27] was > 100 µM. The TGI [28] was > 100 µM, the TGI [29] was > 100 µM and the TGI [30] was > 100 µM. For the same molecule, the TGI [58] was > 100 µM, the TGI [31] was > 100 µM and the TGI [32] was > 100 µM. The TGI [33] was > 100 µM, the TGI [34] was > 100 µM and the TGI [35] was > 100 µM. For the same molecule, the TGI [36] was > 100 µM, the TGI [37] was > 100 µM and the TGI [38] was > 100 µM. The TGI [39] was > 100 µM, the TGI [40] was > 100 µM and the TGI [41] was > 100 µM. The TGI [42] was > 100 µM, the TGI [43] was > 100 µM and the TGI [44] was > 100 µM. The TGI [45] was > 100 µM, the TGI [46] was > 100 µM and the TGI [47] was > 100 µM. The TGI [48] was > 100 µM, the TGI [49] was > 100 µM and the TGI [50] was > 100 µM. For the same molecule, the TGI [51] was > 100 µM, the TGI [52] was > 100 µM and the TGI [53] was > 100 µM.
